Publication PMC7617869, “Molecular glues that inhibit deubiquitylase activity and inflammatory signaling” (Nature Structural & Molecular Biology, 2025)
Values joined by “and” are separate entries in the source; they are usually repeats but may differ in a detail not shown here. Equal values may be shown once.

Key:
BRISC BRCC36 R167A+L169A = BRISC BRCC36 R167A+L169A (Homo sapiens, UniProt P46736+Q15018+Q9NXR7, L169A/R167A); test: BRISC mutant IQF assay: BRCC36 R167A+L169A; assay type: biochemical; details: read-out: Normalised V0
Description: Supplement 41594_2025_1517_MOESM5_ESM.xlsx, sheet "Fig. 4c" | column: Normalised V0

DrBRISCΔNΔC = DrBRISCΔNΔC IQF DUB activity assay; assay type: biochemical, zebrafish (Danio rerio)
Description: (§1) IQF assays were performed in DUB reaction buffer containing 50 mM HEPES–NaOH pH 7.0, 100 mM NaCl, 0.1 mg ml^−1 BSA, 1 mM DTT and 0.03% v/v Brij-35. […] The final concentration of BRISC WT, all BRISC mutants, HsBRISCΔLoop, MmBRISC and DrBRISCΔNΔC was 1 nM. Other enzymes were tested at the following concentrations: 5 nM ARISC (FL), 10 nM CfBRISCΔNΔC, 250 nM AMSH* (ref. [43]), 500 nM USP2 and 1 μM trypsin (Sigma, 9002-07-7). For Michaelis–Menten experiments, 1 nM BRISC with 0–1 μM IQF K63-linked diubiquitin substrate was used. Michaelis–Menten analyses and Lineweaver–Burk plots were calculated using GraphPad Prism (version 9.0).
(§2) To assess enzymatic activity, BRISC complexes were diluted to concentrations between 1 nM and 50 nM. […] Then, 20-μl enzyme reactions were carried out in 384-well black flat-bottom low-flange plates (Corning, 35373). DUB activity was measured using IQF K63-linked diubiquitin (LifeSensors, DU6303) at 50 nM. Cleaved diubiquitin was monitored by measuring fluorescence intensity (excitation, 544 nm; emission, 575 nm; dichroic mirror, 560 nm). Fluorescence intensity was measured every minute for 30 min at 30 °C. Fluorescence intensity units were plotted against time to generate a linear reaction progress curve, where the initial velocity (V0) corresponds to the gradient of the curve (typically achieved within 15 min). IC50 values were calculated using the GraphPad Prism (version 9.0) built-in dose–response equation for inhibitor concentration versus response (variable slope).

HsBRISCΔLoop = HsBRISCΔLoop (Homo sapiens, UniProt P46736+Q15018+Q9NXR7, DEL184-208); test: Mass photometry of HsBRISCΔLoop dimer formation; details: for Dimer fraction: HsBRISCΔLoop
MmBRISC = molecular target: T1, MmBRISC (Mus musculus, UniProt P46737+Q3TCJ1+Q8K3W0); test: MmBRISC IQF DUB activity assay; assay type: biochemical; details: read-out: Normalised V0
T1 construct: made in house; host or cells: Trichoplusia ni cells (Bac-to-Bac, pFastBac-HTB)
Description: as §1, §2

[1] = molecular target: T2, panel of 48 purified DUBs (Homo sapiens, UniProt Q5VVQ6); test: DUB selectivity profiling (DUBprofiler, ubiquitin–rhodamine(110)–glycine); assay type: biochemical; details: DUB OTU1; screening concentration 5 μM
T2 construct: purchased Ubiquigent (DUBprofiler service)
Description: (§3) Biochemical selectivity profiling (DUBprofiler) was performed by Ubiquigent with a panel of 48 purified DUBs and ubiquitin–rhodamine(110)–glycine as a fluorescent substrate.

[2] = molecular target: T3, panel of 48 purified DUBs (Homo sapiens, UniProt P09936); test: as above; assay type: biochemical; details: DUB UCHL1; screening concentration 5 μM; 5 µM
T3 construct: purchased Ubiquigent (DUBprofiler service)
Description: as §3

[3] = molecular target: T4, panel of 48 purified DUBs (Homo sapiens, UniProt Q9H3M9); test: as above; assay type: biochemical; details: DUB Ataxin3L; screening concentration 5 μM; 5 µM
T4 construct: purchased Ubiquigent (DUBprofiler service)
Description: as §3

[4] = molecular target: T5, panel of 48 purified DUBs (Homo sapiens, UniProt P51784); test: as above; assay type: biochemical; details: DUB USP11; screening concentration 5 μM; 5 µM
T5 construct: purchased Ubiquigent (DUBprofiler service)
Description: as §3

[5] = molecular target: T6, panel of 48 purified DUBs (Homo sapiens, UniProt P45974); test: as above; assay type: biochemical; details: DUB USP5; screening concentration 5 μM; 5 µM
T6 construct: purchased Ubiquigent (DUBprofiler service)
Description: as §3

[6] = molecular target: T7, panel of 48 purified DUBs (Homo sapiens, UniProt O94782); test: as above; assay type: biochemical; details: DUB USP1/UAF1; screening concentration 5 μM; 5 µM
T7 construct: purchased Ubiquigent (DUBprofiler service)
Description: as §3

[7] = molecular target: T8, panel of 48 purified DUBs (Homo sapiens, UniProt Q6GQQ9); test: as above; assay type: biochemical; details: DUB Cezanne; screening concentration 5 μM; 5 µM
T8 construct: purchased Ubiquigent (DUBprofiler service)
Description: as §3

[8] = molecular target: T9, panel of 48 purified DUBs (Homo sapiens, UniProt O75317); test: as above; assay type: biochemical; details: DUB USP12/UAF1/WDR20; screening concentration 5 μM
T9 construct: purchased Ubiquigent (DUBprofiler service)
Description: as §3

[9] = molecular target: T10, panel of 48 purified DUBs (Homo sapiens, UniProt Q5VV17); test: as above; assay type: biochemical; details: DUB OTUD1; screening concentration 5 μM; 5 µM
T10 construct: purchased Ubiquigent (DUBprofiler service)
Description: as §3

T1 sequence (P46737 whole entry): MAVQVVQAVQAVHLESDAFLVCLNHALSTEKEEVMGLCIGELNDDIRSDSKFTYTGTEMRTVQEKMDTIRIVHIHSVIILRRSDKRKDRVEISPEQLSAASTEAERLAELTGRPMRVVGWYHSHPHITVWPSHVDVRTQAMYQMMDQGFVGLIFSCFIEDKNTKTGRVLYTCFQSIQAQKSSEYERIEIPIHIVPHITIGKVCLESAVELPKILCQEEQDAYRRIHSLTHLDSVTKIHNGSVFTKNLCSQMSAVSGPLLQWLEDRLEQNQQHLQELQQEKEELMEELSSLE
T1 sequence (Q3TCJ1 whole entry): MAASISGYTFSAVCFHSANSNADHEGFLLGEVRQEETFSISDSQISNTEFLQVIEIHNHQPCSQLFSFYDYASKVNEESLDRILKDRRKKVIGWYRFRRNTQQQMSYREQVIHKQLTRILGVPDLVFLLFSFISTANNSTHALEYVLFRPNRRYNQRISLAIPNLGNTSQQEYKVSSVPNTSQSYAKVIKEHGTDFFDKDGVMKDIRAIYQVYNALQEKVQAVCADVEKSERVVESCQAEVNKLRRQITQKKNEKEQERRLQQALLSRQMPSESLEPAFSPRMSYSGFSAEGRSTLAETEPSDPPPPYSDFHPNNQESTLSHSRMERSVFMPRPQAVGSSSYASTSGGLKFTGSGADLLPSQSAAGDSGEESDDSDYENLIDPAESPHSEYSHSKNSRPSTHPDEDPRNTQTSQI
T1 sequence (Q8K3W0 whole entry): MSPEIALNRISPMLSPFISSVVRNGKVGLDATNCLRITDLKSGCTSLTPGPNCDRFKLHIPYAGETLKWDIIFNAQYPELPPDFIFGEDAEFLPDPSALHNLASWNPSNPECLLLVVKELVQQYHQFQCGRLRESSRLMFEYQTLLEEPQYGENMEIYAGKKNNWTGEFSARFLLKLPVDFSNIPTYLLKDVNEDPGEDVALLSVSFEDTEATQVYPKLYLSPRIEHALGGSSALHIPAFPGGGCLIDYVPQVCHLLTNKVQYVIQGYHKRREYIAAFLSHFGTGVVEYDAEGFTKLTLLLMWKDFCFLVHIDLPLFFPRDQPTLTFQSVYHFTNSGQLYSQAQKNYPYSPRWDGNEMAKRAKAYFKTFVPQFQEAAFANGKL
T1 sequence (Q3UI43 whole entry partner): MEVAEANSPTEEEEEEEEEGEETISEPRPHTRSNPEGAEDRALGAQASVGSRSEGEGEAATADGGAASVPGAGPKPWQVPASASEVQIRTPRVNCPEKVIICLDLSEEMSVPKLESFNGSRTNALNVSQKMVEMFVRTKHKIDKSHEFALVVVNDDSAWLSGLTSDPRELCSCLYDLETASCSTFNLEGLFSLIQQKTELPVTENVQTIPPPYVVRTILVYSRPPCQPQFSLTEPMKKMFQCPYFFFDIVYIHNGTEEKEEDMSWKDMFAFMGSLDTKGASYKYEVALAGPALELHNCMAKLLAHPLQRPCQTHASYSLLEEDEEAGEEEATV
T5 sequence (P51784 whole entry): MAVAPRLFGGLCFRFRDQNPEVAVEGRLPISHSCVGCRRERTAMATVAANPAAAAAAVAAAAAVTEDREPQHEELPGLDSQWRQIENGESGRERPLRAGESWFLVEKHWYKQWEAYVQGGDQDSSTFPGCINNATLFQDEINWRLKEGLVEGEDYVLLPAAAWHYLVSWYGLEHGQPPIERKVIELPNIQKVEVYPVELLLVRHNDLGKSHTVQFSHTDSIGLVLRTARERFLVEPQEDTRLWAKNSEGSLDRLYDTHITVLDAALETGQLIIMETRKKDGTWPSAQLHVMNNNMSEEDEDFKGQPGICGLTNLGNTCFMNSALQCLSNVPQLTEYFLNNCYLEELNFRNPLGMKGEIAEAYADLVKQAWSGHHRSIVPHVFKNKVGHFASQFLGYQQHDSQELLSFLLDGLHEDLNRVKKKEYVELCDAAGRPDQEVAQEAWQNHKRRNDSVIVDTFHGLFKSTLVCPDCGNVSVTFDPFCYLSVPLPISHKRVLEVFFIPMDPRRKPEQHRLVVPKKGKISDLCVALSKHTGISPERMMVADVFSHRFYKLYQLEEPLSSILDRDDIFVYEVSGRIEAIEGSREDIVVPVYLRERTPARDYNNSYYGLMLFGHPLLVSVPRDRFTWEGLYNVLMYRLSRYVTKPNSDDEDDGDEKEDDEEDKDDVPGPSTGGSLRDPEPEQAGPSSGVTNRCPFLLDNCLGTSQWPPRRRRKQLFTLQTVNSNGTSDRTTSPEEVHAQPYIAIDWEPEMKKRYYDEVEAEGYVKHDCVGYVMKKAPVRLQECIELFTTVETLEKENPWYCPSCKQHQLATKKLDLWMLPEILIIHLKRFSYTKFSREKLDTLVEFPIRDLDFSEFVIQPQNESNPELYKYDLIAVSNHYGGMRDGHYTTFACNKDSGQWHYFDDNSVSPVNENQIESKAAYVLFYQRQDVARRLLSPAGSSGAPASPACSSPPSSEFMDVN
T10 sequence (Q5VV17 whole entry): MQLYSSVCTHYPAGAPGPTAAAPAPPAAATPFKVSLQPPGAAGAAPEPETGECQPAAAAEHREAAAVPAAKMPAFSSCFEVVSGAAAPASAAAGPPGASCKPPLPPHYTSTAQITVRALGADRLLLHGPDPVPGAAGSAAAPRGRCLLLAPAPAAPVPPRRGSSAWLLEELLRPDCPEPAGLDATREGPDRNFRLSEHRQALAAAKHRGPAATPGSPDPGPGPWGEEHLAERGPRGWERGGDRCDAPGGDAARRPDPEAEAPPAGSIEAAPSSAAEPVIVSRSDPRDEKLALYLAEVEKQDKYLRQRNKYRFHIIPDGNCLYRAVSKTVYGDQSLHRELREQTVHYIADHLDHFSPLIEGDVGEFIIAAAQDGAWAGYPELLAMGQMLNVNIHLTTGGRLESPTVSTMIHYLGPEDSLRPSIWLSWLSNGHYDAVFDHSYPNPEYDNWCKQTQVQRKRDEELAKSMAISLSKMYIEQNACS
T3 sequence (P09936 whole entry): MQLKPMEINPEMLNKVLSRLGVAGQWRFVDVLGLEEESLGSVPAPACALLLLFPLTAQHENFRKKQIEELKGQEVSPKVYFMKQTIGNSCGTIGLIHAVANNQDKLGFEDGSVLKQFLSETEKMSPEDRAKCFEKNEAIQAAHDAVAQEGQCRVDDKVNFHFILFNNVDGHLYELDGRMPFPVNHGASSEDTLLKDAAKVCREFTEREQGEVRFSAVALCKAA
T7 sequence (O94782 whole entry): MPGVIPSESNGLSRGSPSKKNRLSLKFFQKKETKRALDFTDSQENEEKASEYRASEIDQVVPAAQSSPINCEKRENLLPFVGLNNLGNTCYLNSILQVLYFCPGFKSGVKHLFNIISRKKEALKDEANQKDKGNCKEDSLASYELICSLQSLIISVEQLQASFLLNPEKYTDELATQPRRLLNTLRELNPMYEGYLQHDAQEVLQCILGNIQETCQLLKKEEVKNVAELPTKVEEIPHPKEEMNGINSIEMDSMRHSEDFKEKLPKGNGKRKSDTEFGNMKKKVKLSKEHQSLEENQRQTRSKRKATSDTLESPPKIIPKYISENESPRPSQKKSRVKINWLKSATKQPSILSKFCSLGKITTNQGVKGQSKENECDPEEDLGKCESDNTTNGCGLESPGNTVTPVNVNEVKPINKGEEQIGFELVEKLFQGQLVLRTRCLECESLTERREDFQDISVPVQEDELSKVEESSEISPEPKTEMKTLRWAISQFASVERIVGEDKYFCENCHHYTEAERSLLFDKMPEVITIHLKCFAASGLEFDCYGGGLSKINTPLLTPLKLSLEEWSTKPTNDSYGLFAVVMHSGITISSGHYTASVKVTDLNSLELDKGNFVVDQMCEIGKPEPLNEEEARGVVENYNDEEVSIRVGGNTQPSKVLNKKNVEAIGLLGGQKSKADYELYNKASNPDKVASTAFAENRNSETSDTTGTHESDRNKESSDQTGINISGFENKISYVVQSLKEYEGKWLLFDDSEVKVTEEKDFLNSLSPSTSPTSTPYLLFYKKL
T6 sequence (P45974 whole entry): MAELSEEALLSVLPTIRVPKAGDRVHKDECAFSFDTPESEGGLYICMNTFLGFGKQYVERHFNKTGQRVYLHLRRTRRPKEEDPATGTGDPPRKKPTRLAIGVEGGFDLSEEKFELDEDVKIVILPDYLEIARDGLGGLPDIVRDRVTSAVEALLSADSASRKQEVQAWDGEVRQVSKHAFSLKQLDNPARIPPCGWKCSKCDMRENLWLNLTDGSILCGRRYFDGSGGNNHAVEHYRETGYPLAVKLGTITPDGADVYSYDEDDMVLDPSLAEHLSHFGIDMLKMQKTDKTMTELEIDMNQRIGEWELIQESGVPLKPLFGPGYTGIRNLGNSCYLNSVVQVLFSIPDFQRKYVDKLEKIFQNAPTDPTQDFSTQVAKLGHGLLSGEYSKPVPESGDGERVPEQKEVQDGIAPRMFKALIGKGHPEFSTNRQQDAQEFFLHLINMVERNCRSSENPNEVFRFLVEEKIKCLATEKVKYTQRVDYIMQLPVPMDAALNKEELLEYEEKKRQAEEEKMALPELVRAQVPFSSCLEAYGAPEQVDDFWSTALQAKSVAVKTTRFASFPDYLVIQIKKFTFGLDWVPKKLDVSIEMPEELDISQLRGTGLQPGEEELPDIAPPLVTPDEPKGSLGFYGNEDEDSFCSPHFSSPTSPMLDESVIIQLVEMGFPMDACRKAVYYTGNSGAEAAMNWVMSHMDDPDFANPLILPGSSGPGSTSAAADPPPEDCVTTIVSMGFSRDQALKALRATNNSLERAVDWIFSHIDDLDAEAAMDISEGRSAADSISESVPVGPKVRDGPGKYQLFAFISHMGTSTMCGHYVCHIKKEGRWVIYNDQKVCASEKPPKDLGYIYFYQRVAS

O=C(NC1C2CNCC21)c1nn(C(=O)c2c(Cl)cccc2Cl)cc1NC(=O)c1c(Cl)cccc1Cl (stereo not drawn) [FX-171-C]
remaining activity at 0.35 µM (BRISC BRCC36 R167A+L169A; FX-171-C 0.35 μM): 98.6% | remaining activity at 25 µM (BRISC BRCC36 R167A+L169A; FX-171-C 25 μM): 85.6% | Normalised V0 (DrBRISCΔNΔC; FX-171-C 0.013 μM): 0.983 and 1.045 and 1.007 and 1.076 and 0.9046 and 1 | Normalised V0 (DrBRISCΔNΔC; FX-171-C 0.02 μM): 0.9073 and 0.9513 and 0.9154 | Normalised V0 (DrBRISCΔNΔC; FX-171-C 0.0399999 μM): 0.972 and 1.086 and 0.9939 | Normalised V0 (DrBRISCΔNΔC; FX-171-C 0.0599997 μM): 1 and 1.042 and 0.951 | Normalised V0 (DrBRISCΔNΔC; FX-171-C 0.0799994 μM): 1.257 and 1.072 and 1.014 | Normalised V0 (DrBRISCΔNΔC; FX-171-C 0.119998 μM): 0.9667 and 1.1184 and 0.9769 | Normalised V0 (DrBRISCΔNΔC; FX-171-C 0.199996 μM): 1.0445 and 1.023 and 0.9962 | Normalised V0 (DrBRISCΔNΔC; FX-171-C 0.499975 μM): 0.9714 and 1.052 and 0.9507 | Normalised V0 (DrBRISCΔNΔC; FX-171-C 0.799937 μM): 1.009 and 0.9333 and 0.8977 | Normalised V0 (DrBRISCΔNΔC; FX-171-C 1.25984 μM): 0.9862 and 1.093 and 0.9451 | Normalised V0 (DrBRISCΔNΔC; FX-171-C 1.9996 μM): 0.9182 and 0.9951 and 0.8213 | Normalised V0 (DrBRISCΔNΔC; FX-171-C 3.159 μM): 1.042 and 0.9998 and 0.8593 | Normalised V0 (DrBRISCΔNΔC; FX-171-C 5.19739 μM): 0.6448 and 0.9953 and 0.847 | Normalised V0 (DrBRISCΔNΔC; FX-171-C 7.99364 μM): 0.9454 and 0.9127 and 0.9517 | Normalised V0 (DrBRISCΔNΔC; FX-171-C 12.7839 μM): 0.9358 and 1.024 and 0.8831 | Normalised V0 (DrBRISCΔNΔC; FX-171-C 19.96 μM): 0.6505 and 0.8985 and 0.8711 | Normalised V0 (DrBRISCΔNΔC; FX-171-C 31.4999 μM): 0.752 and 0.7818 and 0.7739 | Normalised V0 (DrBRISCΔNΔC; FX-171-C 50.147 μM): 0.6953 and 0.6278 and 0.7138 | Normalised V0 (DrBRISCΔNΔC; FX-171-C 79.7601 μM): 0.6671 and 0.5066 and 0.3963 | Normalised V0 (DrBRISCΔNΔC; FX-171-C 125.99 μM): 0.4739 and 0.3651 and 0.4262 | Normalised V0 (DrBRISCΔNΔC; FX-171-C 199.922 μM): 0.313 and 0.2853 and 0.3043 | Dimer fraction (HsBRISCΔLoop; [FX-171-C (μM)] 20): 0 | Dimer fraction (HsBRISCΔLoop; [FX-171-C (μM)] 40): 0 | Dimer fraction (HsBRISCΔLoop; [FX-171-C (μM)] 80): 0 | Dimer fraction (HsBRISCΔLoop; [FX-171-C (μM)] 156): 0 | Dimer fraction (HsBRISCΔLoop; [FX-171-C (μM)] 312.5): 0 | Dimer fraction (HsBRISCΔLoop; [FX-171-C (μM)] 2500): 0.11 and 0.07 | Dimer fraction (HsBRISCΔLoop; [FX-171-C (μM)] 5000): 0.16 and 0.15 and 0.14 | Dimer fraction (HsBRISCΔLoop; [FX-171-C (μM)] 10000): 0.23 and 0.22 and 0.14 | dimer formation of human BRISCΔLoop on inhibitor addition (HsBRISCΔLoop; mass photometry and negative-stain EM): fewer dimers | remaining activity at 0.02 µM (MmBRISC; FX-171-C 0.02 μM): 101% | remaining activity at 0.0399999 µM (MmBRISC; FX-171-C 0.0399999 μM): 89.4% | remaining activity at 0.0599997 µM (MmBRISC; FX-171-C 0.0599997 μM): 106% | remaining activity at 0.0799994 µM (MmBRISC; FX-171-C 0.0799994 μM): 102% | remaining activity at 0.119998 µM (MmBRISC; FX-171-C 0.119998 μM): 107% | remaining activity at 0.199996 µM (MmBRISC; FX-171-C 0.199996 μM): 106% | remaining activity at 0.499975 µM (MmBRISC; FX-171-C 0.499975 μM): 94.9% | remaining activity at 0.799937 µM (MmBRISC; FX-171-C 0.799937 μM): 98% | remaining activity at 1.25984 µM (MmBRISC; FX-171-C 1.25984 μM): 89.8% | remaining activity at 1.9996 µM (MmBRISC; FX-171-C 1.9996 μM): 97.6% | remaining activity at 3.159 µM (MmBRISC; FX-171-C 3.159 μM): 92.5% | remaining activity at 5.19739 µM (MmBRISC; FX-171-C 5.19739 μM): 87.1% | remaining activity at 7.99364 µM (MmBRISC; FX-171-C 7.99364 μM): 68.2% | remaining activity at 12.7839 µM (MmBRISC; FX-171-C 12.7839 μM): 57.7% | remaining activity at 19.96 µM (MmBRISC; FX-171-C 19.96 μM): 43.1% | remaining activity at 31.4999 µM (MmBRISC; FX-171-C 31.4999 μM): 34% | remaining activity at 50.147 µM (MmBRISC; FX-171-C 50.147 μM): 24.4% | remaining activity at 79.7601 µM (MmBRISC; FX-171-C 79.7601 μM): 22.6% | remaining activity at 125.99 µM (MmBRISC; FX-171-C 125.99 μM): 12%

O=C(NC1CCNCC1)c1nn(C(=O)c2c(Cl)cccc2Cl)cc1NC(=O)c1c(Cl)cccc1Cl [JMS-175-2]
Activity (% control) [1]: 84 % control | Activity (% control) [2]: 104 % control and 112 % control | Activity (% control) [3]: 98 % control and 95 % control | Activity (% control) [4]: 102 % control and 100 % control | Activity (% control) [5]: 103 % control and 105 % control | Activity (% control) [6]: 81 % control and 82 % control | Activity (% control) [7]: 88 % control and 90 % control | Activity (% control) [8]: 96 % control | Activity (% control) [9]: 100 % control and 102 % control
